Assay results as given in patent US8916586B2, “Anti-angiogenic compound” (University College Dublin—National University of Ireland, …, priority 2011, dated 2014).
“Also recorded” adds a separate entry of the source.

Legend:
[1] = test system: hyaloid vasculature in zebrafish; assay: Zebrafish developmental angiogenesis assay: number of primary branches of hyaloid vasculature on dissected lens; type: in vivo; conditions: 10 μM, treated day 1-5, analysed 5 dpf
Text: We have used the zebrafish model as an in vivo screen for chemical libraries as the small size and transparency of the zebra fish enables high-content screens in multi-well plate formats (MacRae and Peterson, 2003; Pichler et al., 2003; Peterson et al., 2004; den Hertog, 2005; Zon and Peterson, 2005). […] To identify anti-angiogenic drugs we used a transgenic line of zebrafish that expresses a fluorescent reporter (EGFP) specifically in vasculature (Tg(fli1:efgp)). This line was obtained from the Zebrafish International Resource Center. Our assay involved screening the effect of drugs in the library on the development of blood vessels in zebrafish. Specifically, we looked at the integrity of vessels developing in the eye (hyaloid vessels attached to the lens) and in the trunk.
All experiments were carried out under ethical approval granted by the UCD animal research ethics committee. Tg(fli1:EGFP) zebrafish were maintained according to standard procedures on a 14 hr light/10 hr dark cycle at 28° C. Referring to the schematic of FIG. 1A, embryos were obtained by natural spawning and developmental stages established by time and morphological criteria. A chemical library containing numerous compounds was screened (FIG. 1A). In this specific example, the chemical library contained 5000 compounds of the DIVERSet™ collection from ChemBridge Corp., USA. At 24 hours post fertilisation (hpf), 5 embryos per well were placed in […] of Embryo Medium/1% DMSO and incubated with drug at 28° C. on a 14 h light/10 h dark cycle. Larvae were euthanised, and fixed in 4% PFA at 4° C. overnight before analysis. (FIG. 1A).
Right lenses were dissected from the larvae and transferred to depression slides for observation under epi-fluorescence in the Olympus SZX16 and to cover-slip bottom Petri-dishes for confocal microscopy in a Zeiss UV510 META LSM system (20× and 40× inverted objectives). To achieve appropriate orientation, lenses were embedded in 10% methyl-cellulose and manipulated with a tungsten needle (0.5 mm diameter). Patterning of the hyaloid vessels on the treated larval lenses was compared to DMSO controls and the archetypal pattern previously described (Alvarez et al., 2007; Alvarez et al., 2009). The number of primary vessels radiating from the back of the lens (3-4 main branches at 5 dpf in controls and previously described), was counted and the average number was graphed for each drug. From screens of ˜1600 small molecules, four “hits” that inhibited the number of primary hyaloids vessels were identified (FIG. 1B).
To validate the “hits” from the library screen, dose-dependence experiments were conducted by screening the drugs in the assay described in Example 2 above but at a range of increasing concentrations between 1-10 μM. Larvae were maintained under the drug treatments at 28° C. on 14 hr light/10 hr dark cycle until 5 days post fertilisation (dpf), when they were euthanised and fixed in 4% PFA at 4° C. overnight before analysis. The average number of primary hyaloids branches was graphed for each concentration of drug. […] One of the lead compounds identified by the screen of chemical library was 11B which has the chemical name 2-[2-2-quinolinyl)vinyl]phenol and its structure shown below: […]

[2] = test system: mouse model of oxygen induced retinopathy (OIR); assay: Mouse oxygen-induced retinopathy (OIR) model of ocular neovascularisation; type: in vivo; conditions: 2 μg/μl, postnatal day 12-17, intravitreal
Description: To assess the ability of compound 11B to inhibit ocular neovascularisation in mammalian eyes, 11B was tested in the mouse model of oxygen induced retinopathy (OIR). […] 11B was injected intravitreally into a mouse model of oxygen-induced retinopathy (OIR). The OIR model was generated by placing postnatal day 7 (P7) mouse pups into hyperoxia (75% oxygen) for 5 days and then removing them to normoxia (21%) on postnatal day 12 (P12). The hyperoxic (high oxygen) environment causes retinal blood vessels to regress between P7 and P12. The normoxic environment on P12 is a relatively hypoxic (low oxygen) environment for the mice and causes the growth of new blood vessels (angiogenesis). For all samples, eyes were enucleated, fixed, flat mounted and then stained with an isolectin antibody to visualise the blood vessels. Blood vessels were quantified and those treated with lead compounds compared to controls.

[3] = test system: dermal-derived normal human microvascular endothelial cells (HMVEC-d); assay: In vitro HMVEC-d tube formation assay on Matrigel; type: cell-based; conditions: 100 nM, 20 hr
Description: HMVEC-d were purchased from Clonetics, San Diego, Calif., USA. Cells were maintained in complete Endothelial Cell Medium (Clonetics® EGM®-2-MV BulletKit®) containing 500 ml of Endothelial Cell Basal Medium-2 and supplemented with hEGF, 0.5 ml; Hydrocortisone, 0.2 ml; GA-1000, 0.5 ml; FBS, 25 ml; VEGF, 0.5 ml; hFGF-B, 2.0 ml; R3-IGF-1, 0.5 ml; Ascorbic Acid, 0.5 ml in a 37° C. humidified atmosphere of 5% CO2/95% air. HMVEC-d were used for experiments between passages 4-8.
Matrigel (Becton Dickenson) basement membrane matrix was used to examine HMVEC-d tube formation. Matrigel (50 μl) was plated in 96 well culture plate wells after thawing on ice and allowed to polymerise at 37° C. 5% CO2 humidified atmosphere for 1 hr. HMVEC-d were removed from culture, trypsinised, and resuspended in full strength EGM growth medium. Cells were seeded at a density of 50×10^4 cells/cm^2 and incubated for 20 hr at 37° C. 5% CO2 humidified atmosphere. Endothelial cell tubule formation was assessed using phase contrast microscopy and photographed. A connecting branch between two discrete ECs was counted as one tube. The tube analysis was determined from 3 sequential fields (magnification×10) focusing on the surface of the matrigel.

Molecule: COc1cc2c(cc1OC)C(c1ccc3c(c1)OCO3)N(C)CC2 (racemic) [11F-522, 1-(1,3-benzodioxol-5-yl)-6,7-dimethoxy-2-methyl-1,2,3,4-tetrahydroisoquinoline]
- number of primary branches of hyaloid vasculature [1]: inhibited developmental angiogenesis; also recorded: significant (p<0.05) reduction; also recorded: significant inhibition; also recorded: significantly reduce

Molecule: COc1cc2c(cc1OC)[C@@H](c1ccc3c(c1)OCO3)N(C)CC2 (single isomer, unassigned) [11F-522R]
- number of primary branches of hyaloid vasculature [1]: significant (p<0.05) reduction; also recorded: significantly reduce

Molecule: COc1cc2c(cc1OC)[C@H](c1ccc3c(c1)OCO3)N(C)CC2 (single isomer, unassigned) [11F-522S]
- number of primary branches of hyaloid vasculature [1]: did not reduce

Molecule: Oc1ccc(/C=C\c2ccnc3ccccc23)cc1 [11B-799, 4-[2-(4-quinolinyl)vinyl]phenol]
- number of primary branches of hyaloid vasculature [1]: inhibits developmental angiogenesis; also recorded: significant inhibition

Molecule: Avastin: clinically used anti-angiogenic monoclonal antibody, anti-VEGF [reference compound]
- avascular area of the retina in treated eyes [2]: ~22%
- inhibition of HMVEC-d tubule formation [3]: significantly inhibited
